Source: US20170304411A1, “TOPICAL FORMULATION FOR TREATING SKIN OR MUCOSAL INFECTIONS, PREPARATION METHOD AND USES THEREOF” (HPRD - HEALTH PRODUCTS RESEARCH AND DEVELOPMENT LDA, priority 2014, published 2017)

Assays:
[1] = tested on: planktonic cells of different Candida species, including C. albicans; assay: Direct fungistatic or fungicidal activity against planktonic cells; format: cell-based; conditions: previous studies by the applicant's team
Method: When bromelain is added, an increase of activity reduction is observed, dependent on the enzyme concentration (the addition of a 250 μg/mL bromelain solution leads to metabolic activity reductions near 80% for both strains). […] Thus, the increase in metabolic activity reduction shown for the combination of bromelain and clotrimazole is not due to a direct fungistatic activity of the enzyme, but to a degradation of the biofilm matrix. The degradation of this matrix allows for the penetration of clotrimazole in the biofilm favouring its antimicrobial action.

[2] = applied with no dilution on skin and mucosa as occlusive patch; cited from earlier work
[3] = after application in the eye; cited from earlier work
[4] = tested on: biofilms from C. albicans strains; assay: Checkerboard bromelain/clotrimazole, metabolic activity of biofilms (XTT reduction assay); format: cell-based; conditions: increasing concentrations of clotrimazole alone; tested C. albicans strains
Description: Following the washing step of microplates, the number of metabolically active cells available to metabolize XTT is reduced, leading to the overall reduction on metabolic activity.

[5] = tested on: biofilms from C. albicans strains; conditions: clotrimazole alone, without bromelain

bromelain
direct fungistatic or fungicidal activity [1]: does not exhibit direct fungistatic or fungicidal activity

CC(=O)OCC(COC(C)=O)OC(C)=O [triacetin]
irritation potential [2]: low irritation potential
ocular irritation [3]: induces an ocular irritation it does not cause harm

Clc1ccccc1C(c1ccccc1)(c1ccccc1)n1ccnc1 [clotrimazole]
reduction of metabolic activity [4]: ≤ 60%
reduction of biofilm biomass [5]: limited
